# Reference: patent US20080027140A1, “Combinations of Serotonin Reuptake Inhibitors and Imidazoline I 2 Agonists” (MERCK PATENT GMBH, priority 2004, published 2008)
# Entries after “also recorded” stand apart in the source; their conditions may differ.
# What was measured:
# mice = test: Marble burying test (animal model of anxiety states); assay type: in vivo; details: 3 mg/kg subcutaneously each substance, individually or combined at the same dose; 30 minutes test; FIG. 3
# Description: A typical animal model of anxiety states is the “marble burying test” (for example Njung'e and Handley, Br J Pharmacol 1991, 104: 105-112), which has, in particular, specificity for obsessive-compulsive disorders and obsessive-compulsive spectrum disorders. The experimental device consists of a cube-shaped box open at the top in which 25 clear glass marbles are arranged at uniform separations on a 5 cm deep layer of sawdust. Mice are placed individually in the test box for 30 minutes. The number of marbles buried in the sawdust during the test duration of 30 minutes serves as a measure of anxiety. Untreated mice bury the most marbles in the sawdust, anxiolytics reduce the number of buried marbles.
# [1] = tested on: extracellular 5-HT level in the frontal cortex; test: Microdialysis studies: extracellular 5-HT level in the frontal cortex of rats; assay type: in vivo
# rats = test: Forced swimming test (animal model of depression); assay type: in vivo
# Description: A typical animal model of depression is the “forced swimming test” (R. D. Porsolt et al., Nature 1977; 266(5604): 730-732), which is carried out with rats. This model is based on the behaviour known as “behavioural despair”, which the animals show in a hopeless situation known to them: If the rats are placed in a water-filled vessel (usually for 15 minutes) from which they cannot escape, they cease their attempts to escape from the situation after a certain time and remain in immobility or make only the most necessary swimming movements. If the rats are subjected to this situation again the next day, they recognise the hopelessness of the situation and remain in immobility for the majority of the time, and the time which the animals spend in immobility (which is regarded as surrogate for depression) during the 5-minute test duration serves as a measure of the depression. Anti-depressants shorten this immobility time. Fluoxetine (5 mg/kg perorally) and 2-BFI (3 and 10 mg/kg perorally) are administered—individually or combined—either in accordance with a repeated acute scheme (fluoxetine 24 h, 5 h and 2 h; 2-BFI 24 h, 5 h and 1 h before commencement of the test) or in accordance with a subchronic scheme (fluoxetine or 2-BFI once daily for 7 days, on the final day fluoxetine 2 h and 2-BFI 1 h before commencement of the test).
# [2] = tested on: extracellular level of serotonin (5-HT) in the brain; details: fluoxetine alone, even at a relatively high dose; literature (Artigas et al.); cited from earlier work
Structure (SMILES),number of buried marbles compared with vehicle-treated mice (mice),"effect on the extracellular 5-HT level in the frontal cortex ([1]; 2-BFI alone, 20 mg/kg subcutaneously, FIG. 1)","immobility phase (rats; repeated acute scheme, 2-BFI alone 3 and 10 mg/kg perorally, 24 h, 5 h and 1 h before test, FIG. 4)","immobility phase (rats; subchronic scheme, once daily for 7 days, 2-BFI alone 3 and 10 mg/kg perorally, FIG. 5)","effect on the extracellular 5-HT level ([1]; fluoxetine alone, 10 mg/kg intraperitoneally, FIG. 2, 10 mg/kg)",approximately three-fold increase of the extracellular 5-HT level [2],"immobility phase (rats; repeated acute scheme, fluoxetine alone 5 mg/kg perorally, 24 h, 5 h and 2 h before test, FIG. 4)","immobility phase (rats; subchronic scheme, once daily for 7 days, fluoxetine alone 5 mg/kg perorally, FIG. 5)"
"c1ccc2oc(C3=NCCN3)cc2c1 [2-BFI, 2-(2-benzofuranyl)-2-imidazoline]",reduced the number of buried marbles only slightly,no effect,does not reduce the immobility phase,Virtually identical effects,–,–,–,–
CNCCC(Oc1ccc(C(F)(F)F)cc1)c1ccccc1 (stereo not drawn) [fluoxetine],reduced the number of buried marbles only slightly,–,–,–,slightly raises; also recorded: only a slight increase,cannot be achieved,only a negligible effect,Virtually identical effects
